Measurements: ChEMBL document CHEMBL5537197, “Discovery of Novel Coumarin-quinolinium Derivatives as Pan-KRAS Translation Inhibitors by Targeting 5'-UTR RNA G-Quadruplexes” (J Med Chem, 2024)
Activity calls are given as the source filed them. The calls are words filed in the database; no cut-off is given here.

Columns and labels:
MIA PaCa-2 [1] = assay: Cytotoxicity against human MIA PaCa-2 cells harboring KRAS G12C mutant assessed as cell growth inhibition incubated for 24 hrs by MTT assay; type: functional, cell-based; details: MIA PaCa-2, 24 h
PANC-1 = assay: Cytotoxicity against human PANC-1 cells harboring KRAS G12D mutant assessed as cell growth inhibition incubated for 24 hrs by MTT assay; type: functional, cell-based; details: PANC-1, 24 h
[2] = Cytotoxicity against human PANC-1 cells […] assessed as cell growth inhibition incubated for 24 hrs by MTT assay; type: functional, cell-based; details: PANC-1, 24 h
NCM460 = assay: Cytotoxicity against human NCM460 cells harboring wild-type KRAS assessed as cell growth inhibition incubated for 24 hrs by MTT assay; type: functional, cell-based; details: NCM460, 24 h
[3] = biological target: GTPase KRas (Homo sapiens) (UniProt P01116); assay: Inhibition of KRAS in human MIA PaCa-2 cells at 2.5 uM incubated for 24 hrs by Western blot analysis; type: cell-based
[4] = biological target: GTPase KRas (Homo sapiens) (UniProt P01116); assay: Inhibition of KRAS in human PANC-1 cells at 2.5 uM incubated for 24 hrs by Western blot analysis; type: cell-based
[5] = biological target: GTPase KRas (Homo sapiens) (UniProt P01116); assay: Inhibition of KRAS in human MIA PaCa-2 cells at >5 uM incubated for 24 hrs by Western blot analysis; type: cell-based
[6] = biological target: GTPase KRas (Homo sapiens) (UniProt P01116); assay: Inhibition of KRAS in human PANC-1 cells at >5 uM incubated for 24 hrs by Western blot analysis; type: cell-based
HPAF-II = assay: Cytotoxicity against human HPAF-II cells harboring KRAS G12D mutant assessed as cell growth inhibition incubated for 24 hrs by MTT assay; type: functional, cell-based
SW-620 = assay: Cytotoxicity against human SW620 cells harboring KRAS G12V mutant assessed as cell growth inhibition incubated for 24 hrs by MTT assay; type: functional, cell-based; details: SW-620, 24 h
HCT-116 = assay: Cytotoxicity against human HCT-116 cells harboring KRAS G13D mutant assessed as cell growth inhibition incubated for 24 hrs by MTT assay; type: functional, cell-based; details: HCT-116, 24 h
NCI-H358 = assay: Cytotoxicity against human NCI-H358 cells harboring KRAS G12C mutant assessed as cell growth inhibition incubated for 24 hrs by MTT assay; type: functional, cell-based; details: NCI-H358, 24 h
U-87 MG = assay: Cytotoxicity against human U-87 MG cells harboring wild-type KRAS assessed as cell growth inhibition incubated for 24 hrs by MTT assay; type: functional, cell-based, U-87MG ATCC
[7] = Cytotoxicity against human LX2 cells harboring wild-type KRAS assessed as cell growth inhibition incubated for 24 hrs by MTT assay; type: toxicity, cell-based, LX-2
[8] = Cytotoxicity against human HFL1 cells harboring wild-type KRAS assessed as cell growth inhibition incubated for 24 hrs by MTT assay; type: toxicity, cell-based
MIA PaCa-2 [9] = assay: In vivo inhibition of KRAS in human MIA PaCa-2 cells xenografted in BALB/C-nu/nu mouse model at 2.5 mg/kg,ip everyday for 18 days by IHC analysis; type: functional, organism-based; details: time 18.0 day

Sequence of GTPase KRas (Homo sapiens) (P01116 whole entry, looked up): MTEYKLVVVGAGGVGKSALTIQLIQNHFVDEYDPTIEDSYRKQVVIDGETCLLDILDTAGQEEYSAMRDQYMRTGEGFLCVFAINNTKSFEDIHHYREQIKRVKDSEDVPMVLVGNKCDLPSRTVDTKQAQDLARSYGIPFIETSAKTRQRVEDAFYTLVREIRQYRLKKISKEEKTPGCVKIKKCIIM

SMILES	inhibition [3]	inhibition [4]	inhibition [5]	inhibition [6]	IC50 (MIA PaCa-2 [1])	IC50 (PANC-1)	IC50 [2]	IC50 (NCM460)	IC50 (HPAF-II)	IC50 (SW-620)	IC50 (HCT-116)	IC50 (NCI-H358)	IC50 (U-87 MG)	IC50 at 24 h [7]	IC50 at 24 h [8]	Activity (MIA PaCa-2 [9])
CCCCN(CCCC)CCCn1cc(CNc2cc3c(cc2F)c(N2CCN(C)CC2)cc(/C=C/c2cc4ccc(N(CC)CC)cc4oc2=O)[n+]3C)nn1	Active	Active	–	–	5.9 µM	8.8 µM	> 40 µM	> 40 µM	–	–	–	–	–	–	–	–
C=CC(=O)N1CCN(c2nc(=O)n(-c3c(C)ccnc3C(C)C)c3nc(-c4c(O)cccc4F)c(F)cc23)[C@@H](C)C1 [SOTORASIB]	–	–	–	–	> 40 µM	> 40 µM	> 40 µM	> 40 µM	–	–	–	–	–	–	–	inactive
CCN(CC)CCCNc1cc2c(ccc(/C=C/c3cc4ccc(N(CC)CC)cc4oc3=O)[n+]2C)cc1F	Active	Active	–	–	7.7 µM	7.2 µM	> 40 µM	> 40 µM	–	–	–	–	–	–	–	–

The next lines start with results.

inhibition [3]	inhibition [4]	inhibition [5]	inhibition [6]	SMILES	IC50 (MIA PaCa-2 [1])	IC50 (PANC-1)	IC50 [2]	IC50 (NCM460)	IC50 (HPAF-II)	IC50 (SW-620)	IC50 (HCT-116)	IC50 (NCI-H358)	IC50 (U-87 MG)	IC50 at 24 h [7]	IC50 at 24 h [8]	Activity (MIA PaCa-2 [9])
Active	Active	–	–	CCN(CC)c1ccc2cc(/C=C/c3ccc4cc(F)c(NCCCN5CCCC5)cc4[n+]3C)c(=O)oc2c1	7.8 µM	11.8 µM	> 40 µM	> 40 µM	–	–	–	–	–	–	–	–
–	–	Active	Active	CCN(CC)c1ccc2cc(/C=C/c3ccc4cc(F)c(N5CCN(C)CC5)cc4[n+]3C)c(=O)oc2c1	10.8 µM	14.7 µM	> 40 µM	> 40 µM	32.1 µM	18.6 µM	19.1 µM	11.9 µM	> 40 µM	> 40 µM	> 40 µM	–
Active	Active	–	–	CCN(CC)c1ccc2cc(/C=C/c3ccc4cc(F)c(NCCN5CCCCC5)cc4[n+]3C)c(=O)oc2c1	43 µM	5.8 µM	> 40 µM	> 40 µM	–	–	–	–	–	–	–	–
Active	Active	–	–	CCN(CC)c1ccc2cc(/C=C/c3ccc4cc(F)c(NCCCN5CCOCC5)cc4[n+]3C)c(=O)oc2c1	4.2 µM	6 µM	> 40 µM	> 40 µM	–	–	–	–	–	–	–	–
